In US9193984B2, “Method for detecting interactions between two and more biological macromolecules” (Korea Basic Science Institute, priority 2008, dated 2015):

Target: T1, first construct (TMD-mRFP) in CHO-k1 cells (Homo sapiens, UniProt Q05655, K378R/Y313F)
T1 construct: expressed in transfected cells; host or cells: CHO-k1
Assay: Translocation of first construct (TMD-mRFP) toward the cell membrane depending on PMA concentration
Type: cell-based, Cricetulus griseus
Text: In order to optimize the translocation characteristic of the translocation module, the first construct vector (pTMD-mRFP-C3) shown in FIG. 5 was used to determine the optimum concentration of PMA (phorbol-12-myristate-13-acetate), which was used as an external stimulation. Detailed experimental procedures were the same as in FIG. 5.
A cover slip containing the cells in which the first construct and second construct vectors had been introduced was fixed to a perfusion chamber and mounted on the object stage of a confocal laser fluorescence microscope (Carl Zeiss LSM510). Images of the construct vectors were taken before and after external stimulation (treatment with 1 μM PMA).
Translocation efficiency of the first construct using the pTMD-mRFP-C3 vector depending on the concentration of external stimulant PMA was measured as follows. The expression vector of the first construct was transformed into CHO-k1 cells and overexpressed. After 18 hours of culturing, PMA was treated at 1, 5, 10, 20, 40, 50, 80 and 100 nM and 1 and 5 μM.

T1 sequence (Q05655 whole entry Y313F/K378R): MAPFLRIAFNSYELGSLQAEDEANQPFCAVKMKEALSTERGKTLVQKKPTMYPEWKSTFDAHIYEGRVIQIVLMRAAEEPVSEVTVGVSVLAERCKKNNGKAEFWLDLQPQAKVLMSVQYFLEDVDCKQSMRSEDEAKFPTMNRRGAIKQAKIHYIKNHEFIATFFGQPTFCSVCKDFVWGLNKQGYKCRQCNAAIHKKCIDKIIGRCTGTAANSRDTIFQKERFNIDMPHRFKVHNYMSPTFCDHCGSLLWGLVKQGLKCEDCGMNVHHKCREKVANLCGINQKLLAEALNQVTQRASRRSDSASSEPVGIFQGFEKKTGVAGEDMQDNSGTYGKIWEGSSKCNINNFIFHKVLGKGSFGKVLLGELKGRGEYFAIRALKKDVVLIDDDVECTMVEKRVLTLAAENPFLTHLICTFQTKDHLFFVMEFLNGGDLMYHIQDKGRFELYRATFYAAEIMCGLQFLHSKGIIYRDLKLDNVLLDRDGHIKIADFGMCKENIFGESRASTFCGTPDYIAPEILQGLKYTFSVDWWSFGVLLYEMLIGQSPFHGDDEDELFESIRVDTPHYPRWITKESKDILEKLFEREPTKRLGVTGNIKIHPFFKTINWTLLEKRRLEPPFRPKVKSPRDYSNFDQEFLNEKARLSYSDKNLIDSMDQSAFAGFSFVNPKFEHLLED

CCCCCCCCCCCCCC(=O)O[C@@H]1[C@@H](C)[C@@]2(O)[C@@H](C=C(CO)C[C@]3(O)C(=O)C(C)=C[C@@H]23)[C@@H]2C(C)(C)[C@]12OC(C)=O [PMA, phorbol-12-myristate-13-acetate]
cells with translocation of first construct toward the cell membrane (PMA 50 nM, CHO-k1, 200 cells counted): ≥ 90%
movement of red fluorescence toward the cell membrane (PMA 100 nM or higher): increased
